SMILES strings stand for the structures.

From patent publication US12699067B2, “Electrochemical biosensor and the manufacturing method thereof” (China Medical University, priority 2023, dated 2026) come the findings set out here.

This assay relates to human non-small cell lung cancer cell line (A549 cell line). Briefly: Detection of heat shock protein (Hsp70) released from paclitaxel-treated A549 cells with the Hsp70 electrochemical immunosensor. The format is cell-based. The conditions noted are these: A549 cell line treated with 0, 75, 100 μM Paclitaxel; culture solution as control; FIG. 12. The text has this: It was known that the expression of heat shock protein (Hsp70) was highly correlated with the growth of cancer cells. The present invention further uses Hsp70 electrochemical immunosensor (BSA/antiHsp70/EN-LC/Au@MnO2/MoO3) to detect heat shock protein (Hsp70) in human non-small cell lung cancer cell line (A549 cell line).
Therefore, the Hsp70 electrochemical immunosensor provided by the present invention could be used for detecting heat shock protein (Hsp70).

On to `CC(=O)O[C@H]1C(=O)[C@@]2(C)[C@H]([C@H](OC(=O)c3ccccc3)[C@]3(O)C[C@H](OC(=O)[C@H](O)[C@@H](NC(=O)c4ccccc4)c4ccccc4)C(C)=C1C3(C)C)[C@]1(OC(C)=O)CO[C@@H]1C[C@@H]2O` [paclitaxel, Paclitaxel], for which the “curve (the radius) of Hsp70 electrochemical immunosensor, indicating bound heat shock protein (Hsp70) released by the cells” value is “increased”.
